The source of these data is article PMC7644958, “Estimates of RelSeq, Mesh1, and SAHMex Hydrolysis of (p)ppGpp and (p)ppApp by Thin Layer Chromatography and NADP/NADH Coupled Assays” (Frontiers in Microbiology, 2020).

For this test, the target named is T1, MESH1 (Homo sapiens, UniProt Q8N4P3).
T1 construct: gene HDDC3; pET28 derivative, expressed in E. coli BL21(lambda DE3); His-tag removed with thrombin
Nature of the test: TLC hydrolysis assay (PEI-cellulose). Format: biochemical. The following applies: 5 mM substrate, pH 8.0, 37°C, 250 mM NaCl, 14 mM MgCl2, 6.5 mM MnCl2.

T1 sequence (Q8N4P3 whole entry): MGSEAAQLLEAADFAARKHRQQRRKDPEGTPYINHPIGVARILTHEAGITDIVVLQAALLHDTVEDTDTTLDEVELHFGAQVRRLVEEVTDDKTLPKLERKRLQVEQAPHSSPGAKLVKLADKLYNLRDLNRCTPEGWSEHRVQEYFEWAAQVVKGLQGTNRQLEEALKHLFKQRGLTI

Turning to `Nc1ncnc2c1ncn2[C@@H]1O[C@H](COP(=O)(O)OP(=O)(O)O)[C@@H](OP(=O)(O)OP(=O)(O)O)[C@H]1O` [ppApp], the “TLC hydrolysis assay (PEI-cellulose)” value is “The human MESH1 hydrolase displays similar activities as shown for Drosophila Mesh1”.
Take `Nc1ncnc2c1ncn2[C@@H]1O[C@H](COP(=O)(O)OP(=O)(O)OP(=O)(O)O)[C@@H](OP(=O)(O)OP(=O)(O)O)[C@H]1O` [pppApp]: the “TLC hydrolysis assay (PEI-cellulose)” value is recorded as “The human MESH1 hydrolase displays similar activities as shown for Drosophila Mesh1”.
